Measurements published in ChEMBL document CHEMBL1144017, “Novel AMPA and kainate receptor antagonists containing the pyrazolo[1,5-c]quinazoline ring system: Synthesis and structure-activity relationships” (Bioorg Med Chem, 2008).

Assays:
[1] = Displacement of [3H]kainate from KA receptor in rat cortical membrane; assay type: cell membranes
Rattus norvegicus [2] = species on record: Rattus norvegicus; assay: Ratio of Ki for rat NMDA receptor to Ki for rat AMPA receptor
[3] = biological target: Glutamate NMDA receptor (Mus musculus); assay: Antagonist activity at NMDA receptor assessed as inhibition of NMDA-induced depolarization in mouse cortical wedge preparation by electrophysiology assay
[4] = biological target: Glutamate NMDA receptor (Rattus norvegicus) (UniProt P35439+Q00959+Q00960+Q00961+Q62645+Q8VHN2+Q9R1M7); assay: Displacement of [3H]glycine from NMDA receptor in rat cortical membrane at 100 uM; assay type: cell membranes
[5] = biological target: AMPA receptor (Mus musculus); assay: Antagonist activity at AMPA receptor assessed as inhibition of AMPA-induced depolarization in mouse cortical wedge preparation by electrophysiology assay
[6] = Displacement of [3H]AMPA from AMPA receptor in rat cortical membrane; assay type: cell membranes
Glutamate NMDA receptor = assay: Displacement of [3H]glycine from NMDA receptor in rat cortical membrane; assay type: cell membranes
Rattus norvegicus [7] = species on record: Rattus norvegicus; assay: Displacement of [3H]kainate from KA receptor in rat cortical membrane at 100 uM; assay type: cell membranes
Rattus norvegicus [8] = species on record: Rattus norvegicus; assay: Displacement of [3H]AMPA from AMPA receptor in rat cortical membrane at 100 uM; assay type: cell membranes

Row | Structure (SMILES) | IC50 [1] [µM] | Ratio Ki (Rattus norvegicus [2]) | IC50 [3] [µM] | Activity [4] [%] | IC50 [5] [µM] | Ki [6] [µM] | Ki (Glutamate NMDA receptor) [µM] | Activity (Rattus norvegicus [7]) [%] | Activity (Rattus norvegicus [8]) [%]
1 | CCOC(=O)c1nn2c(=O)[nH]c3cc(Cl)c(NC(=O)NCCc4ccccc4)cc3c2c1C(=O)OCC |  | 0.49 |  |  |  |  | 49 | 9 | 44
2 | CCOC(=O)c1nn2c(=O)[nH]c3cc(Cl)c(-n4cccc4)cc3c2c1C(=O)OCC |  | > 2 |  | 13 |  | 48 |  | 12 | 
3 | O=C(O)c1nn2c(=O)[nH]c3cc(Cl)c([N+](=O)[O-])cc3c2c1[N+](=O)[O-] |  | 1.7 |  |  |  | 11.9 | 20.5 | 29 | 
4 | O=C(O)c1ccccc1C(=O)Nc1cc2c(cc1Cl)[nH]c(=O)n1nc(C(=O)O)c(C(=O)O)c21 | 0.52 | 20.7 |  |  |  | 1.3 | 27 |  | 
5 | CCNC(=O)Nc1cc2c(cc1Cl)[nH]c(=O)n1nc(C(=O)OCC)c(C(=O)OCC)c21 |  | > 3.7 |  | 44 |  | 27 |  | 13 | 
6 | CCOC(=O)c1cccc(NC(=O)Nc2cc3c(cc2Cl)[nH]c(=O)n2nc(C(=O)OCC)c(C(=O)OCC)c32)c1 |  |  |  | 0 |  |  |  | 0 | 18
7 | CCOC(=O)c1nn2c(=O)[nH]c3cc(Cl)c([N+](=O)[O-])cc3c2c1[N+](=O)[O-] |  | 0.4 |  |  |  |  | 36.2 | 16 | 45
8 | CCOC(=O)c1nn2c(=O)[nH]c3cc(Cl)c(NC(=O)c4ccccc4C(=O)O)cc3c2c1C(=O)OCC | 0.11 | 12.8 |  |  |  | 2.8 | 36 |  | 
9 | CCOC(=O)c1nn2c(=O)[nH]c3cc(Cl)c(NC(=O)NCc4ccccc4)cc3c2c1C(=O)OCC |  |  |  | 19 |  |  |  | 0 | 44
10 | CCOC(=O)c1nn2c(=O)[nH]c3cc(Cl)c(-n4ccc(C=O)c4)cc3c2c1C(=O)OCC |  | > 6 |  | 20 |  | 15.7 |  | 17 | 
11 | CCOC(=O)CCNC(=O)Nc1cc2c(cc1Cl)[nH]c(=O)n1nc(C(=O)OCC)c(C(=O)OCC)c21 |  | > 26 |  | 32 |  | 3.8 |  | 32 | 
12 | CCOC(=O)CCCNC(=O)Nc1cc2c(cc1Cl)[nH]c(=O)n1nc(C(=O)OCC)c(C(=O)OCC)c21 |  | 28 |  |  |  | 3.5 | 99 | 24 | 
13 | CCOC(=O)c1nn2c(=O)[nH]c3cc(Cl)c(NC(=O)NC(Cc4ccccc4)C(=O)OC)cc3c2c1C(=O)OCC (racemic) |  |  |  | 16 |  |  |  | 16 | 46
14 | CCOC(=O)c1ccc(NC(=O)Nc2cc3c(cc2Cl)[nH]c(=O)n2nc(C(=O)OCC)c(C(=O)OCC)c32)cc1 |  |  |  | 5 |  |  |  | 15 | 5
15 | CCOC(=O)c1nn2c(=O)[nH]c3cc(Cl)c([N+](=O)[O-])cc3c2c1C(=O)OCC |  |  |  | 30 |  |  |  | 0 | 40
16 | CCOC(=O)c1nn2c(=O)[nH]c3cc(Cl)c(NC(=O)Nc4ccccc4)cc3c2c1C(=O)OCC |  |  |  | 11 |  |  |  | 0 | 20
17 | CCOC(=O)CNC(=O)Nc1cc2c(cc1Cl)[nH]c(=O)n1nc(C(=O)OCC)c(C(=O)OCC)c21 |  | > 11 |  | 43 |  | 8.9 |  | 19 | 
18 | CCOC(=O)c1nn2c(=O)[nH]c3cc(Cl)c([N+](=O)[O-])cc3c2c1Cl |  | > 1.5 |  | 45 |  | 63 |  | 25 | 

The next lines start with the values.

Row | IC50 [1] [µM] | Ratio Ki (Rattus norvegicus [2]) | IC50 [3] [µM] | Activity [4] [%] | IC50 [5] [µM] | Ki [6] [µM] | Ki (Glutamate NMDA receptor) [µM] | Activity (Rattus norvegicus [7]) [%] | Activity (Rattus norvegicus [8]) [%] | Structure (SMILES)
19 | 2.4 | > 1000 | > 10 | 43 | 2.5 | 0.1 |  |  |  | O=C(O)c1nn2c(=O)[nH]c3cc(Cl)c(-n4cnnc4)cc3c2c1C(=O)O
20 |  |  |  |  |  | 0.14 |  |  |  | O=C(O)c1cc2c3cc(-n4cnnc4)c(Cl)cc3[nH]c(=O)n2n1
21 | 4.5 | 154 |  |  |  | 0.13 | 20 |  |  | O=C(O)c1nn2c(=O)[nH]c3cc(Cl)c(-n4cccc4)cc3c2c1C(=O)O
22 | 11.7 | 2 |  |  |  | 0.59 | 1.25 |  |  | O=C(O)c1nn2c(=O)[nH]c3cc(Cl)c([N+](=O)[O-])cc3c2c1C(=O)O
23 | 94 | 1.9 |  |  |  | 1.3 | 2.5 |  |  | O=C(O)c1nn2c(=O)[nH]c3cc(Cl)c([N+](=O)[O-])cc3c2c1Cl
24 | 3 | 83 |  |  |  | 0.42 | 35 |  |  | O=C(Nc1cccc(C(=O)O)c1)Nc1cc2c(cc1Cl)[nH]c(=O)n1nc(C(=O)O)c(C(=O)O)c21
25 | 40 | 129 |  |  |  | 0.47 | 61 |  |  | O=C(Nc1cc2c(cc1Cl)[nH]c(=O)n1nc(C(=O)O)c(C(=O)O)c21)NC(Cc1ccccc1)C(=O)O (racemic)
26 | 4.6 | 425 |  |  |  | 0.16 | 68 |  |  | O=C(O)CCNC(=O)Nc1cc2c(cc1Cl)[nH]c(=O)n1nc(C(=O)O)c(C(=O)O)c21
27 | 4.4 | 112 |  |  |  | 0.48 | 54 |  |  | O=C(O)CNC(=O)Nc1cc2c(cc1Cl)[nH]c(=O)n1nc(C(=O)O)c(C(=O)O)c21
28 | 17 |  |  |  |  | 0.48 | 31 |  |  | O=C(NCCc1ccccc1)Nc1cc2c(cc1Cl)[nH]c(=O)n1nc(C(=O)O)c(C(=O)O)c21
29 | 82 | > 80 | > 20 | 18 | 5.8 | 1.2 |  |  |  | CCOC(=O)c1nn2c(=O)[nH]c3cc(Cl)c(-n4cnnc4)cc3c2c1C(=O)OCC
30 | 9.8 | 73.3 |  |  |  | 0.56 | 41 |  |  | CCNC(=O)Nc1cc2c(cc1Cl)[nH]c(=O)n1nc(C(=O)O)c(C(=O)O)c21
31 | 60 | 5 |  |  |  | 0.94 | 4.7 |  |  | CCOC(=O)c1c(C(=O)O)nn2c(=O)[nH]c3cc(Cl)c([N+](=O)[O-])cc3c12
32 | 11 | 83.5 |  |  |  | 0.14 | 11.7 |  |  | O=C(Nc1ccccc1)Nc1cc2c(cc1Cl)[nH]c(=O)n1nc(C(=O)O)c(C(=O)O)c21
33 | 11 | 44 |  |  |  | 0.37 | 16.3 |  |  | O=C(NCc1ccccc1)Nc1cc2c(cc1Cl)[nH]c(=O)n1nc(C(=O)O)c(C(=O)O)c21
34 | 13 | 44 |  |  |  | 1.1 | 49 |  |  | O=C(Nc1ccc(C(=O)O)cc1)Nc1cc2c(cc1Cl)[nH]c(=O)n1nc(C(=O)O)c(C(=O)O)c21
